Legend:
Experiment in all cases: KINOMEscan
Assay type in all cases: binding
Conditions in all cases: 2000 nM
RIPK5 = biological target: T1, RIPK5 (Homo sapiens, UniProt Q6XUX3)
T1 construct: DNA label (qPCR read-out); purchased DiscoveRx (KINOMEscan ScanMAX panel)

ULK3 = biological target: T2, ULK3 (Homo sapiens, UniProt Q6PHR2)
T2 construct: DNA label (for qPCR read-out); purchased DiscoveRx (KINOMEscan scanMAX panel)

MAP4K3 = MAP4K3 (Homo sapiens, UniProt Q8IVH8)
MEK5 = biological target: T3, MEK5 (Homo sapiens, UniProt Q13163)
T3 construct: purchased DiscoveRx (KINOMEscan scanMAX panel, service)

SIK = biological target: T4, SIK (Homo sapiens, UniProt P57059)
T4 construct: purchased KINOMEscan (DiscoveRx)

IKK-beta = biological target: T5, IKK-beta (Homo sapiens, UniProt O14920)
T5 construct: DNA label (qPCR read-out); purchased KINOMEscan (DiscoveRx) ScanMAX panel

ROS1 = biological target: T6, ROS1 (Homo sapiens, UniProt P08922)
T6 construct: DNA label (qPCR read-out); purchased DiscoveRx (KINOMEscan ScanMAX panel)

CSNK1A1L = biological target: T7, CSNK1A1L (Homo sapiens, UniProt Q8N752)
T7 construct: DNA label; purchased DiscoveRx (KINOMEscan scanMAX panel)

MKK7 = biological target: T8, MKK7 (Homo sapiens, UniProt O14733)
T8 construct: DNA label (qPCR read-out); purchased KINOMEscan scanMAX panel (DiscoveRx)

RIOK2 = biological target: T9, RIOK2 (Homo sapiens, UniProt Q9BVS4)
T9 construct: DNA label (qPCR read-out); purchased DiscoverX (assay service)

TLK1 = biological target: T10, TLK1 (Homo sapiens, UniProt Q9UKI8)
T10 construct: DNA label (qPCR read-out); purchased KINOMEscan (DiscoveRx) ScanMAX panel

DRAK1 = biological target: T11, DRAK1 (Homo sapiens, UniProt Q9UEE5)
T11 construct: DNA label (qPCR read-out); purchased KINOMEscan (DiscoveRx) panel

[1] = biological target: T12, RSK1(Kin.Dom.2-C-terminal) (Homo sapiens, UniProt Q15418)
T12 construct: RSK1(Kin.Dom.2); purchased DiscoveRx (KINOMEscan scanMAX panel)

PRKD1 = biological target: T13, PRKD1 (Homo sapiens, UniProt Q15139)
T13 construct: purchased DiscoveRx (KINOMEscan scanMAX panel)

KIT(V559D, V654A) = biological target: T14, KIT(V559D, V654A) (Homo sapiens, UniProt P10721, V559D/V654A)
T14 construct: purchased KINOMEscan (DiscoveRx) panel service

YANK3 = biological target: T15, YANK3 (Homo sapiens, UniProt Q86UX6)
T15 construct: purchased KINOMEscan (DiscoveRx) panel service

MET = biological target: T16, MET (Homo sapiens, UniProt P08581)
T16 construct: purchased DiscoveRx (KINOMEscan scanMAX panel, service)

DYRK1A = biological target: T17, DYRK1A (Homo sapiens, UniProt Q13627)
T17 construct: DNA label (qPCR read-out); purchased KINOMEscan (DiscoveRx) panel

TNIK = biological target: T18, TNIK (Homo sapiens, UniProt Q9UKE5)
T18 construct: DNA label (qPCR read-out); purchased KINOMEscan (DiscoveRx) ScanMAX panel

BMPR2 = biological target: T19, BMPR2 (Homo sapiens, UniProt Q13873)
T19 construct: DNA label (for qPCR read-out); purchased KINOMEscan scanMAX panel (DiscoveRx)

WNK4 = biological target: T20, WNK4 (Homo sapiens, UniProt Q96J92)
T20 construct: purchased KINOMEscan (DiscoveRx) panel service

[2] = biological target: T21, JAK3(JH1domain-catalytic) (Homo sapiens, UniProt P52333)
T21 construct: JAK3(JH1domain-catalytic); DNA label (for qPCR read-out); purchased DiscoveRx (KINOMEscan scanMAX panel)

AMPK-alpha1 = biological target: T22, AMPK-alpha1 (Homo sapiens, UniProt Q13131)
T22 construct: DNA label (qPCR read-out); purchased KINOMEscan scanMAX panel (DiscoveRx)

CDK2 = biological target: T23, CDK2 (Homo sapiens, UniProt P24941)
T23 construct: purchased DiscoverX (KINOMEscan service)

CDK4-cyclinD1 = biological target: T24, CDK4-cyclinD1 (Homo sapiens, UniProt P11802)
T24 construct: purchased DiscoverX (KINOMEscan service)

MYLK4 = biological target: T25, MYLK4 (Homo sapiens, UniProt Q86YV6)
T25 construct: DNA label (for qPCR read-out); purchased KINOMEscan scanMAX panel (DiscoveRx)

DAPK1 = biological target: T26, DAPK1 (Homo sapiens, UniProt P53355)
T26 construct: DNA label; purchased DiscoveRx (KINOMEscan scanMAX panel)

PCTK3 = biological target: T27, PCTK3 (Homo sapiens, UniProt Q07002)
T27 construct: DNA label (for qPCR read-out); purchased DiscoveRx (KINOMEscan scanMAX service)

EGFR(L861Q) = biological target: T28, EGFR(L861Q) (Homo sapiens, UniProt P00533, L861Q)
T28 construct: purchased DiscoveRx (KINOMEscan scanMAX panel)

[3] = biological target: T29, RSK2(Kin.Dom.1-N-terminal) (Homo sapiens, UniProt P51812)
T29 construct: RSK2(Kin.Dom.1); purchased DiscoveRx (KINOMEscan scanMAX panel)

PFTK1 = biological target: T30, PFTK1 (Homo sapiens, UniProt O94921)
T30 construct: DNA label (for qPCR read-out); purchased DiscoveRx (KINOMEscan scanMAX service)

FLT3-autoinhibited = biological target: T31, FLT3-autoinhibited (Homo sapiens, UniProt P36888)
T31 construct: purchased KINOMEscan (DiscoveRx)

TAOK2 = biological target: T32, TAOK2 (Homo sapiens, UniProt Q9UL54)
T32 construct: DNA label (for qPCR read-out); purchased DiscoveRx (KINOMEscan scanMAX panel, contract assay)

PIK3CA(C420R) = biological target: T33, PIK3CA(C420R) (Homo sapiens, UniProt P42336, C420R)
T33 construct: DNA label; purchased DiscoveRx (KINOMEscan scanMAX panel)

T21 sequence (P52333 822-1111 limits assumed): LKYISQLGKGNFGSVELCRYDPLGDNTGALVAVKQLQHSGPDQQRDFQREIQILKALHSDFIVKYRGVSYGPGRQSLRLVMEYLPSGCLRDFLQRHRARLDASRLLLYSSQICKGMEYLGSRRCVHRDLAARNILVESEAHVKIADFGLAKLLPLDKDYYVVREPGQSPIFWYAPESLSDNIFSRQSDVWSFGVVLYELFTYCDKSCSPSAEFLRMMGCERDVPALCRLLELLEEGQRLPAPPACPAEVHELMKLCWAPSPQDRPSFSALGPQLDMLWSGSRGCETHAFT
T5 sequence (O14920 whole entry): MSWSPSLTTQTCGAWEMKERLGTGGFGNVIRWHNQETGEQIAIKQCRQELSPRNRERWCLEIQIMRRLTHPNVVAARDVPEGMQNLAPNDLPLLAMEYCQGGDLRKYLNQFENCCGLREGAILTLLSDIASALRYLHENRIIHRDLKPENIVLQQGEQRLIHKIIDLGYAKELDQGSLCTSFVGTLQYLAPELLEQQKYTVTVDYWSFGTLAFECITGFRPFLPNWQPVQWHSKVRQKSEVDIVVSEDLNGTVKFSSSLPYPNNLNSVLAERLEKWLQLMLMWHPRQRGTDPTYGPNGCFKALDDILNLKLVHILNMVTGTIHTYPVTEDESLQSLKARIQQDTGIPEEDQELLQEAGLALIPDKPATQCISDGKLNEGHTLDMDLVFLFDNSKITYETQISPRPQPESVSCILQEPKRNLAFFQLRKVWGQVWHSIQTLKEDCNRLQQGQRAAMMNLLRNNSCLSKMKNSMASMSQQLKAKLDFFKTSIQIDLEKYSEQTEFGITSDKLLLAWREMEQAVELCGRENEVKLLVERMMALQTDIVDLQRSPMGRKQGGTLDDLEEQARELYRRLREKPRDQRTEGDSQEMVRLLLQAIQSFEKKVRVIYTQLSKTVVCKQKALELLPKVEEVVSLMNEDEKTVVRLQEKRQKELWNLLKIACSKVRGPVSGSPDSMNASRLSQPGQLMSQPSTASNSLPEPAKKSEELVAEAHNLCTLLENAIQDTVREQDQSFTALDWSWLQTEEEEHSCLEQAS
T19 sequence (Q13873 27-1038): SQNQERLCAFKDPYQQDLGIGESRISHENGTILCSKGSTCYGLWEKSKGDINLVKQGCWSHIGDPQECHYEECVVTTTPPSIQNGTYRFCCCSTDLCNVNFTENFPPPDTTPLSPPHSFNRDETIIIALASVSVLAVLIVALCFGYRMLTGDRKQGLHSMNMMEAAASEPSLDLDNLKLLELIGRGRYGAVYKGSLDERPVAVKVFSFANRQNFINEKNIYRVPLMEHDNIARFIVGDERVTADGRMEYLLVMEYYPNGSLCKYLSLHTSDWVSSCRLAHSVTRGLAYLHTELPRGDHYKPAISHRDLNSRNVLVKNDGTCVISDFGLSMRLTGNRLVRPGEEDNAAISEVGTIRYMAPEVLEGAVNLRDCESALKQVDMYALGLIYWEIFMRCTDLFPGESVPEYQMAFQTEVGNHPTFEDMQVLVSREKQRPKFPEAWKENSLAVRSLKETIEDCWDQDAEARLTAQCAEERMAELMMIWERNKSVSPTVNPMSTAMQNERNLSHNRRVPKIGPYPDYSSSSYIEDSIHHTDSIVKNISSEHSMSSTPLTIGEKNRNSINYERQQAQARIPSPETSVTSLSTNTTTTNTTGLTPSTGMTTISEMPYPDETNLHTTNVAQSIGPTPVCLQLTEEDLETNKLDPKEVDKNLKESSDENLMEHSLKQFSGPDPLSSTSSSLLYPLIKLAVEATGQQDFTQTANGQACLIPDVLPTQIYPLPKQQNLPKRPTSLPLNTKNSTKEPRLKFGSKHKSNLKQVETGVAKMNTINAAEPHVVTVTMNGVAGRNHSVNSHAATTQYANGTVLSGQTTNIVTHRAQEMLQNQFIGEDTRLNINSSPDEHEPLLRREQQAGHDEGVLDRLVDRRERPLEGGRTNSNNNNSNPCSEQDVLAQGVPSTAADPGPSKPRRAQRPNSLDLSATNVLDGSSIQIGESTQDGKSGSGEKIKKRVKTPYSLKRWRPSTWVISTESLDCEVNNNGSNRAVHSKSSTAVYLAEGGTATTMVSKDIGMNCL
T24 sequence (P11802 whole entry): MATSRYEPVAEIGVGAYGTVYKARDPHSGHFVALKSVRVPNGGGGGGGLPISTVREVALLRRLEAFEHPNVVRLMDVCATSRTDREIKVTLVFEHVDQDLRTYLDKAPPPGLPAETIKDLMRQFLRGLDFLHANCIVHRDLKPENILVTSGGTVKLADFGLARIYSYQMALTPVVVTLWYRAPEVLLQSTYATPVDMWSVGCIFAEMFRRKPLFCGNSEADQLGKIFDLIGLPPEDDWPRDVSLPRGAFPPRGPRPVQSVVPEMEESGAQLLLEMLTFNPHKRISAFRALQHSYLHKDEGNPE
T24 sequence (P24385 whole entry partner): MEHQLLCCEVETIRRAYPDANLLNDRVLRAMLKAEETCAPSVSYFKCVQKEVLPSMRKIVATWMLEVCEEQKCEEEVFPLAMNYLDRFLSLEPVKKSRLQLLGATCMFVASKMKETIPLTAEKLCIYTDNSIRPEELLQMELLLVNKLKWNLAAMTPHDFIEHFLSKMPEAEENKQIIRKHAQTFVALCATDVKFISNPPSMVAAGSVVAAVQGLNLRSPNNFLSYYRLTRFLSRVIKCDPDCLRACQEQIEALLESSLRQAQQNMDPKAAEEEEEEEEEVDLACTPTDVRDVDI
T27 sequence (Q07002 whole entry): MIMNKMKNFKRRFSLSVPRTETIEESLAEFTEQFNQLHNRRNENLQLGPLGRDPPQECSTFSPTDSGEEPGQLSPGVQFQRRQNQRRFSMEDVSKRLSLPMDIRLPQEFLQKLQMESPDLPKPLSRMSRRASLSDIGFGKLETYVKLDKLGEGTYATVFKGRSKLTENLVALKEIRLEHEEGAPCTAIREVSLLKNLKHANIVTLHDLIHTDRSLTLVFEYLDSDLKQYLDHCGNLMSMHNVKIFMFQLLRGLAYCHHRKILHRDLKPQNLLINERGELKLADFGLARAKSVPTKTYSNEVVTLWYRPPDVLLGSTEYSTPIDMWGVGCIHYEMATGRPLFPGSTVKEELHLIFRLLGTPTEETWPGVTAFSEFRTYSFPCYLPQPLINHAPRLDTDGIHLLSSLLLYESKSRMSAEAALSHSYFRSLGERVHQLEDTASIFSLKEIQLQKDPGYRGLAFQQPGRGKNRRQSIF
T13 sequence (Q15139 whole entry): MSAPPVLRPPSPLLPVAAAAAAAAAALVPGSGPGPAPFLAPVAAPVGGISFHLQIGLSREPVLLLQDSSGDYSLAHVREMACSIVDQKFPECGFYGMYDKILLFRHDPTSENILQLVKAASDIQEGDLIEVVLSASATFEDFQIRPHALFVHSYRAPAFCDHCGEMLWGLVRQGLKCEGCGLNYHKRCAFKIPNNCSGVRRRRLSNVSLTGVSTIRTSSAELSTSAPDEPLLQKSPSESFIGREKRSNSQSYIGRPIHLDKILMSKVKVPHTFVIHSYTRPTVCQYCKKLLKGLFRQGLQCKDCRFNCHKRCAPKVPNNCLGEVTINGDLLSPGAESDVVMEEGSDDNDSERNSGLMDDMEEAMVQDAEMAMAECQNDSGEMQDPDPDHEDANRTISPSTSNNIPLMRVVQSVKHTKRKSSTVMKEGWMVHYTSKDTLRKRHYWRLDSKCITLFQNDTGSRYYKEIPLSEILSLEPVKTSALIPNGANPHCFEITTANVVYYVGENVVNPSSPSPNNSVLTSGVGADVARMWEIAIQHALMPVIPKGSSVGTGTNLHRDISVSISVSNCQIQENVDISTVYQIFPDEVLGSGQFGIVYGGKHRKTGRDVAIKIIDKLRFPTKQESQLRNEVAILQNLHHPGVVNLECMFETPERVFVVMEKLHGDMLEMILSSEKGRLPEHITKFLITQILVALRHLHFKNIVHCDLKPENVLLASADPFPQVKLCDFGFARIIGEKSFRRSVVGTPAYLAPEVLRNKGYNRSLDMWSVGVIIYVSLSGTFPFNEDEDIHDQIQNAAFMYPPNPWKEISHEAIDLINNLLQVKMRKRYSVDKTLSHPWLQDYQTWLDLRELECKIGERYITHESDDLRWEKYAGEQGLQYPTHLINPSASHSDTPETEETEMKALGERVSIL
T7 sequence (Q8N752 whole entry): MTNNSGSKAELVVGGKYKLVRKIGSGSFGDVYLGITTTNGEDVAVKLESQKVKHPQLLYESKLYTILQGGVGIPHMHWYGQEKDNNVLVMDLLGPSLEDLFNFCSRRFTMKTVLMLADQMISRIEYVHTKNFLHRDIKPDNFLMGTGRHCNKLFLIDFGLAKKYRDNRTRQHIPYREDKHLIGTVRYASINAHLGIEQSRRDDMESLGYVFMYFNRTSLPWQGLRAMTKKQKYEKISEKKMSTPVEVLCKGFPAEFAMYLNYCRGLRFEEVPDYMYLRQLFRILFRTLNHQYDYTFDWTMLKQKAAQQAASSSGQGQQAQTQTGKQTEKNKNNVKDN
T25 sequence (Q86YV6 whole entry): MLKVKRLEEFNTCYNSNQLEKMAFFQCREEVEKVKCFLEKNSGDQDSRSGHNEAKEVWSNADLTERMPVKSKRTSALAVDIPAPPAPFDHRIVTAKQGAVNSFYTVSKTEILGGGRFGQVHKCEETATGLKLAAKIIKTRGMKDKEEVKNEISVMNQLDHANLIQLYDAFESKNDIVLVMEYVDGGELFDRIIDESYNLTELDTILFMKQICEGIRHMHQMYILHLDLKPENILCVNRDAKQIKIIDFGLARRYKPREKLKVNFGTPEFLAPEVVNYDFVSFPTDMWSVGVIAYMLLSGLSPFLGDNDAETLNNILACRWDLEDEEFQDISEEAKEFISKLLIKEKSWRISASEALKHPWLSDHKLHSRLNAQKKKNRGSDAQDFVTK

SMILES	% Ctrl (RIPK5)	% Ctrl (ULK3)	% Ctrl (MAP4K3)	% Ctrl (MEK5)	% Ctrl (SIK)	% Ctrl (IKK-beta)	% Ctrl (ROS1)	% Ctrl (CSNK1A1L)	% Ctrl (MKK7)	% Ctrl (RIOK2)	% Ctrl (TLK1)	% Ctrl (DRAK1)	% Ctrl [1]	% Ctrl (PRKD1)	% Ctrl (KIT(V559D, V654A))	% Ctrl (YANK3)	% Ctrl (MET)	% Ctrl (DYRK1A)	% Ctrl (TNIK)	% Ctrl (BMPR2)	other results
[2H]C([2H])([2H])N(C(=O)c1ccc(N2CCCN(c3ccnc4sc(C(N)=O)c(N)c34)CC2)cc1)C([2H])([2H])[2H] [15u_D6, 3-amino-4-(4-(4-(bis(methyl-d3)carbamoyl)phenyl)-1,4-diazepan-1-yl)thieno[2,3-b]pyridine-2-carboxamide]	72 % Ctrl	79 % Ctrl	95 % Ctrl	65 % Ctrl	79 % Ctrl	71 % Ctrl	100 % Ctrl	37 % Ctrl	85 % Ctrl	3.9 % Ctrl	85 % Ctrl	100 % Ctrl	86 % Ctrl	92 % Ctrl	100 % Ctrl	97 % Ctrl	92 % Ctrl	22 % Ctrl	91 % Ctrl	88 % Ctrl	% Ctrl (WNK4): 98 % Ctrl; % Ctrl [2]: 80 % Ctrl; % Ctrl (AMPK-alpha1): 100 % Ctrl; % Ctrl (CDK2): 99 % Ctrl; % Ctrl (CDK4-cyclinD1): 96 % Ctrl; % Ctrl (MYLK4): 94 % Ctrl; % Ctrl (DAPK1): 88 % Ctrl; % Ctrl (PCTK3): 100 % Ctrl; % Ctrl (EGFR(L861Q)): 100 % Ctrl; % Ctrl [3]: 64 % Ctrl; % Ctrl (PFTK1): 100 % Ctrl; % Ctrl (FLT3-autoinhibited): 77 % Ctrl; % Ctrl (TAOK2): 93 % Ctrl; % Ctrl (PIK3CA(C420R)): 86 % Ctrl
CN(C)C(=O)c1ccc(N2CCCN(c3ccnc4sc(C(N)=O)c(N)c34)CC2)cc1 [15u, 3-amino-4-(4-(4-(dimethylcarbamoyl)phenyl)-1,4-diazepan-1-yl)thieno[2,3-b]pyridine-2-carboxamide]	100 % Ctrl	96 % Ctrl	91 % Ctrl	86 % Ctrl	84 % Ctrl	89 % Ctrl	95 % Ctrl	67 % Ctrl	100 % Ctrl	35 % Ctrl	97 % Ctrl	100 % Ctrl	100 % Ctrl	88 % Ctrl	100 % Ctrl	81 % Ctrl	99 % Ctrl	50 % Ctrl	100 % Ctrl	79 % Ctrl	% Ctrl (WNK4): 60 % Ctrl; % Ctrl [2]: 83 % Ctrl; % Ctrl (AMPK-alpha1): 100 % Ctrl; % Ctrl (CDK2): 100 % Ctrl; % Ctrl (CDK4-cyclinD1): 94 % Ctrl; % Ctrl (MYLK4): 100 % Ctrl; % Ctrl (DAPK1): 92 % Ctrl; % Ctrl (PCTK3): 100 % Ctrl; % Ctrl (EGFR(L861Q)): 78 % Ctrl; % Ctrl [3]: 90 % Ctrl; % Ctrl (PFTK1): 96 % Ctrl; % Ctrl (FLT3-autoinhibited): 72 % Ctrl; % Ctrl (TAOK2): 92 % Ctrl; % Ctrl (PIK3CA(C420R)): 100 % Ctrl

— patent US11572369B2, “Bicyclic pyridine compositions and methods of using the same for cancer therapy” (UNIVERSITY OF SOUTH CAROLINA, priority 2019, dated 2023)
